Data from the supplement of paper PMC10307832.

What was measured:
Assay in all cases: relative viability (nuclei count vs DMSO), 5 days (fraction); higher = more cells survive
NCI-H647 = system: NCI-H647
In short: (§1)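 Medians of duplicate plates are given as relative viability. That measure is the nuclei count in treated wells divided by the count in vehicle wells. Counts were taken on 4× images of lung cancer cell lines in 1536-well plates, 5 days after pin-tool dosing the day after seeding with one drug alone or a fixed anchor-drug dose plus five library-drug doses (not always all listed) in √10 steps.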

NCI-H1792 = system: NCI-H1792
In short: as §1

LK-2 = system: LK-2
In short: as §1

NCI-H358 = system: NCI-H358
In short: as §1

NCI-H2347 = system: NCI-H2347
In short: as §1

NCI-H1975 = system: NCI-H1975
In short: as §1

A-427 = system: A-427
In short: as §1

NCI-H1437 = system: NCI-H1437
In short: as §1

SW 900 = system: SW 900
In short: as §1

NCI-H460 = system: NCI-H460
In short: as §1

HCC-366 = system: HCC-366
In short: as §1

EPLC-272H = system: EPLC-272H
In short: as §1

HCC-44 = system: HCC-44
In short: as §1

HCC-78 = system: HCC-78
In short: as §1

HOP-62 = system: HOP-62
In short: as §1

EKVX = system: EKVX
In short: as §1

COR-L23 = system: COR-L23
In short: as §1

NCI-H2009 = system: NCI-H2009
In short: as §1

SK-MES-1 = system: SK-MES-1
In short: as §1

NCI-H520 = system: NCI-H520
In short: as §1

COR-L 105 = system: COR-L 105
In short: as §1

NCI-H1650 = system: NCI-H1650
In short: as §1

Nc1cccc2c1CN(C1CCC(=O)NC1=O)C2=O (stereo not drawn) [Lenalidomide] + NC(=O)Nc1cc(-c2cccc(F)c2)sc1C(=O)N[C@H]1CCCNC1 [AZD7762] (partner 0.2 µM)
relative viability (NCI-H647; first compound 0.253 µM): 0.485 | relative viability (NCI-H647; first compound 0.8 µM): 0.401 | relative viability (NCI-H647; first compound 2.53 µM): 0.499 | relative viability (NCI-H647; first compound 8 µM): 0.498 | relative viability (NCI-H1792; first compound 0.253 µM): 0.894 | relative viability (NCI-H1792; first compound 0.8 µM): 0.571 | relative viability (NCI-H1792; first compound 2.53 µM): 0.971 | relative viability (NCI-H1792; first compound 8 µM): 0.479 | relative viability (LK-2; first compound 0.253 µM): 0.511 | relative viability (LK-2; first compound 0.8 µM): 0.366 | relative viability (LK-2; first compound 2.53 µM): 0.33 | relative viability (LK-2; first compound 8 µM): 0.206 | relative viability (NCI-H358; first compound 0.253 µM): 0.521 | relative viability (NCI-H358; first compound 0.8 µM): 0.713 | relative viability (NCI-H358; first compound 2.53 µM): 0.494 | relative viability (NCI-H358; first compound 8 µM): 0.621 | relative viability (NCI-H2347; first compound 0.253 µM): 0.787 | relative viability (NCI-H2347; first compound 0.8 µM): 0.689 | relative viability (NCI-H2347; first compound 2.53 µM): 0.811 | relative viability (NCI-H2347; first compound 8 µM): 0.703 | relative viability (NCI-H1975; first compound 0.253 µM): 0.8 | relative viability (NCI-H1975; first compound 0.8 µM): 0.642 | relative viability (NCI-H1975; first compound 2.53 µM): 0.776 | relative viability (NCI-H1975; first compound 8 µM): 0.713 | relative viability (A-427; first compound 0.253 µM): 0.793 | relative viability (A-427; first compound 0.8 µM): 0.878 | relative viability (A-427; first compound 2.53 µM): 0.889 | relative viability (A-427; first compound 8 µM): 0.887 | relative viability (NCI-H1437; first compound 0.253 µM): 1.16 | relative viability (NCI-H1437; first compound 0.8 µM): 1.23 | relative viability (NCI-H1437; first compound 2.53 µM): 1.17 | relative viability (NCI-H1437; first compound 8 µM): 1.19 | relative viability (SW 900; first compound 2.53 µM): 0.578 | relative viability (SW 900; first compound 8 µM): 0.456 | relative viability (NCI-H460; first compound 0.253 µM): 0.578 | relative viability (NCI-H460; first compound 0.8 µM): 0.567 | relative viability (NCI-H460; first compound 2.53 µM): 0.596 | relative viability (NCI-H460; first compound 8 µM): 0.754 | relative viability (HCC-366; first compound 0.253 µM): 0.258 | relative viability (HCC-366; first compound 0.8 µM): 0.268 | relative viability (HCC-366; first compound 2.53 µM): 0.371 | relative viability (HCC-366; first compound 8 µM): 0.335 | relative viability (EPLC-272H; first compound 0.253 µM): 0.23 | relative viability (EPLC-272H; first compound 0.8 µM): 0.202 | relative viability (EPLC-272H; first compound 2.53 µM): 0.213 | relative viability (EPLC-272H; first compound 8 µM): 0.201 | relative viability (HCC-44; first compound 0.253 µM): 0.97 | relative viability (HCC-44; first compound 0.8 µM): 0.836 | relative viability (HCC-44; first compound 2.53 µM): 0.999 | relative viability (HCC-44; first compound 8 µM): 1.14 | relative viability (HCC-78; first compound 0.253 µM): 0.767 | relative viability (HCC-78; first compound 0.8 µM): 0.537 | relative viability (HCC-78; first compound 2.53 µM): 0.617 | relative viability (HCC-78; first compound 8 µM): 0.417 | relative viability (HOP-62; first compound 0.253 µM): 0.552 | relative viability (HOP-62; first compound 0.8 µM): 0.838 | relative viability (HOP-62; first compound 2.53 µM): 0.711 | relative viability (HOP-62; first compound 8 µM): 0.533 | relative viability (EKVX; first compound 0.253 µM): 0.735 | relative viability (EKVX; first compound 0.8 µM): 0.941 | relative viability (EKVX; first compound 2.53 µM): 0.805 | relative viability (EKVX; first compound 8 µM): 0.7

Nc1cccc2c1CN(C1CCC(=O)NC1=O)C2=O (stereo not drawn) [Lenalidomide] + Cc1cc(Nc2cc(N3CCN(C)CC3)nc(Sc3ccc(NC(=O)C4CC4)cc3)n2)n[nH]1 [Tozasertib] (partner 0.1 µM)
relative viability (NCI-H647; first compound 0.253 µM): 0.339 | relative viability (NCI-H647; first compound 0.8 µM): 0.27 | relative viability (NCI-H647; first compound 2.53 µM): 0.26 | relative viability (NCI-H647; first compound 8 µM): 0.355 | relative viability (LK-2; first compound 0.253 µM): 0.175 | relative viability (LK-2; first compound 0.8 µM): 0.197 | relative viability (LK-2; first compound 2.53 µM): 0.164 | relative viability (LK-2; first compound 8 µM): 0.135 | relative viability (NCI-H358; first compound 0.253 µM): 0.12 | relative viability (NCI-H358; first compound 0.8 µM): 0.107 | relative viability (NCI-H358; first compound 2.53 µM): 0.103 | relative viability (NCI-H358; first compound 8 µM): 0.0989 | relative viability (NCI-H2347; first compound 0.253 µM): 0.633 | relative viability (NCI-H2347; first compound 0.8 µM): 0.414 | relative viability (NCI-H2347; first compound 2.53 µM): 0.643 | relative viability (NCI-H2347; first compound 8 µM): 0.599 | relative viability (COR-L23; first compound 0.253 µM): 0.255 | relative viability (COR-L23; first compound 0.8 µM): 0.238 | relative viability (COR-L23; first compound 2.53 µM): 0.229 | relative viability (COR-L23; first compound 8 µM): 0.29 | relative viability (NCI-H1975; first compound 0.253 µM): 0.886 | relative viability (NCI-H1975; first compound 0.8 µM): 0.755 | relative viability (NCI-H1975; first compound 2.53 µM): 0.844 | relative viability (NCI-H1975; first compound 8 µM): 0.849 | relative viability (A-427; first compound 0.253 µM): 0.197 | relative viability (A-427; first compound 0.8 µM): 0.222 | relative viability (A-427; first compound 2.53 µM): 0.22 | relative viability (A-427; first compound 8 µM): 0.216 | relative viability (NCI-H1437; first compound 0.253 µM): 0.432 | relative viability (NCI-H1437; first compound 0.8 µM): 0.443 | relative viability (NCI-H1437; first compound 2.53 µM): 0.441 | relative viability (NCI-H1437; first compound 8 µM): 0.47 | relative viability (SW 900; first compound 0.253 µM): 0.544 | relative viability (SW 900; first compound 2.53 µM): 0.635 | relative viability (SW 900; first compound 8 µM): 0.616 | relative viability (NCI-H2009; first compound 0.253 µM): 0.776 | relative viability (NCI-H2009; first compound 0.8 µM): 0.761 | relative viability (NCI-H2009; first compound 2.53 µM): 0.836 | relative viability (NCI-H2009; first compound 8 µM): 0.847 | relative viability (SK-MES-1; first compound 0.253 µM): 0.865 | relative viability (SK-MES-1; first compound 0.8 µM): 0.802 | relative viability (SK-MES-1; first compound 2.53 µM): 0.913 | relative viability (SK-MES-1; first compound 8 µM): 0.98 | relative viability (NCI-H520; first compound 0.253 µM): 0.429 | relative viability (NCI-H520; first compound 0.8 µM): 0.461 | relative viability (NCI-H520; first compound 2.53 µM): 0.468 | relative viability (NCI-H520; first compound 8 µM): 0.374 | relative viability (NCI-H460; first compound 0.253 µM): 0.393 | relative viability (NCI-H460; first compound 0.8 µM): 0.396 | relative viability (NCI-H460; first compound 2.53 µM): 0.49 | relative viability (NCI-H460; first compound 8 µM): 0.587 | relative viability (COR-L 105; first compound 0.253 µM): 0.351 | relative viability (COR-L 105; first compound 0.8 µM): 0.31 | relative viability (COR-L 105; first compound 2.53 µM): 0.402 | relative viability (COR-L 105; first compound 8 µM): 0.373 | relative viability (NCI-H1650; first compound 0.8 µM): 0.58 | relative viability (NCI-H1650; first compound 2.53 µM): 0.563 | relative viability (NCI-H1650; first compound 8 µM): 0.592 | relative viability (HCC-366; first compound 0.253 µM): 0.14 | relative viability (HCC-366; first compound 0.8 µM): 0.128 | relative viability (HCC-366; first compound 2.53 µM): 0.154 | relative viability (HCC-366; first compound 8 µM): 0.131 | relative viability (EPLC-272H; first compound 0.253 µM): 0.343 | relative viability (EPLC-272H; first compound 0.8 µM): 0.229 | relative viability (EPLC-272H; first compound 2.53 µM): 0.349 | relative viability (EPLC-272H; first compound 8 µM): 0.256 | relative viability (HCC-44; first compound 0.253 µM): 0.886 | relative viability (HCC-44; first compound 2.53 µM): 1.22 | relative viability (HCC-44; first compound 8 µM): 1.12 | relative viability (HCC-78; first compound 0.253 µM): 0.537 | relative viability (HCC-78; first compound 0.8 µM): 0.44 | relative viability (HCC-78; first compound 2.53 µM): 0.443 | relative viability (HCC-78; first compound 8 µM): 0.49 | relative viability (HOP-62; first compound 0.253 µM): 0.359 | relative viability (HOP-62; first compound 0.8 µM): 0.41 | relative viability (HOP-62; first compound 2.53 µM): 0.352 | relative viability (HOP-62; first compound 8 µM): 0.405 | relative viability (EKVX; first compound 0.253 µM): 0.396 | relative viability (EKVX; first compound 0.8 µM): 0.41 | relative viability (EKVX; first compound 2.53 µM): 0.415 | relative viability (EKVX; first compound 8 µM): 0.372
